Measured values published in patent US20070128265A1, “Regulation of cell proliferation and differentiation using topically applied peptides” (priority 2000, published 2007).

Experiments:
[1] = tested on: epidermis of psoriatic lesions; experiment: Skin biopsies of psoriatic lesions: hemotoxilin and eosin staining, immunohistochemistry for PCNA and transglutaminase; type: in vivo, patients; conditions: treated lesions compared to placebo treated lesions, two months
[2] = tested on: hair follicle cells; experiment: BRDU staining of hair follicle cells in depilated C57 BL/6 mice; type: in vivo; conditions: 10 μg in 30 μl Novasome topically daily for seven days
Method: (§1) C57 BL/6 were purchased from Jackson Labs and were in their telogen state of hair development. The animals were depilated as previously described (1). Groups of six animals received daily a topical application of either 10 μg of PTH (1-34) in 30 μl of Novasome or their depilatated backs, 10 μg of PTH (7-34)/30 μl of Novasome, or 30 μl of Novasome. The animals were dosed daily for seven days. Macroscopic evaluation and tritiated thymidine and bromouridine analysis was made on day seven as previously described (1, 2, 3, 4).

[3] = tested on: psoriatic lesion; experiment: One patient with chronic psoriasis: topical PTH (1-34) followed by calcipotriene cream; type: in vivo
Description: One patient with chronic psoriasis received topically PTH (1-34) for two months. […] The patient returned two weeks later and, on the lesion treated with PTH (1-34) and the placebo lesion, received topically calcipotriene cream. […] Therefore, the combination therapy of PTH (1-34) followed by calcipotriene or other activated vitamin D compounds can be an effective therapeutic approach for treating psoriasis.

[4] = tested on: mammalian cells; conditions: U.S. Pat. Nos. 5,527,772, 5,840,690 and 6,066,618; agonists or antagonists of PTH and PTHrP; cited from earlier work
[5] = tested on: psoriatic lesions; experiment: Double blind placebo controlled trial in chronic psoriasis, clinical improvement of lesions; type: in vivo, patients; conditions: 20 μg/0.1 ml in Novasome topically, two months
Description: Nine patients with chronic psoriasis were enrolled in a double blind placebo controlled trial. […] The percentage of clinical improvement of scaling, erythema, and induration for the lesion treated with placebo was 17.2, 15, and 30%, respectively. For the lesion treated with PTH (1-34), there was a marked improvement in scaling of 30.9%, erythema 34%, and induration 52%, respectively.

[6] = tested on: epidermis; experiment: Tritiated thymidine incorporation into epidermal DNA in SKH-1 hairless mice; type: in vivo
Method: SKH-1 hairless mice received topically daily for 60 days either 10 μg of PTH (1-34) formulated in Novasome A, PTH (7-34) formulated in Novasome A, or Novasome A without any PTH analog to serve as the control group. The animals received ^3H-tritiated thymidine for the evaluation of epidermal proliferation as previously described.

[7] = tested on: hair follicles; experiment: Macroscopic evaluation of hair cycle progression in depilated C57 BL/6 mice; type: in vivo; conditions: for hair growth progression (progression of hair follicles into anagen), macroscopic evaluation: 10 μg in 30 μl Novasome topically daily for seven days
Method: as §1

Compound: PTH (1-34): parathyroid hormone fragment (1-34), agonist peptide; tested topically formulated in Novasome A liposomes
- PCNA staining in skin biopsies [1]: restoration of the PCNA staining in the basal layer
- proliferation of the epidermis in skin biopsies [1]: marked decrease in the proliferation of the epidermis
- transglutaminase staining in skin biopsies [1]: restoration of transglutaminase staining in the upper granular layer
- BRDU staining of the hair follicles [2]: demonstrated a decrease
- response of psoriatic lesion ([3]; topical PTH (1-34) for two months): minimal response
- effect on proliferation and differentiation of mammalian cells [4]: inhibit proliferation and enhance differentiation of mammalian cells
- percentage of clinical improvement of erythema [5]: 34%
- percentage of clinical improvement of induration [5]: 52%
- percentage of clinical improvement of scaling [5]: 30.9%
- decrease in DNA synthesis (proliferation) compared to the control group ([6]; 10 μg topically daily for 60 days in Novasome A, 3H-thymidine): 25%
- hair growth progression (progression of hair follicles into anagen), macroscopic evaluation [7]: decrease in hair growth progression

Compound: PTHrP (1-34): parathyroid related peptide fragment (1-34), agonist of PTH and PTHrP
- effect on proliferation and differentiation of mammalian cells [4]: inhibit proliferation and enhance differentiation of mammalian cells

Compound: PTH (3-34): parathyroid hormone fragment (3-34), agonist of PTH and PTHrP (SEIQLMHNLGKHLNSMERVEWLRKKLQDVHNF; Parathyroid hormone; UniProt P01270 34-65, looked up, fragment)
- effect on proliferation and differentiation of mammalian cells [4]: inhibit proliferation and enhance differentiation of mammalian cells

Compound: C=C1/C(=C\C=C2/CCC[C@]3(C)[C@@H]([C@H](C)/C=C/[C@@H](O)C4CC4)CC[C@@H]23)C[C@@H](O)C[C@@H]1O [calcipotriene, reference compound]
- response of psoriatic lesion after two months of topical calcipotriene cream ([3]; lesion pretreated two months with PTH (1-34) or with Novasome placebo): no significant improvement

Compound: PTHrP (7-34): parathyroid related peptide fragment (7-34), antagonist of PTH and PTHrP
- effect on proliferation and differentiation of mammalian cells [4]: enhance the proliferation of mammalian cells

Compound: PTH (7-34): parathyroid hormone fragment (7-34), antagonist peptide; tested topically formulated in Novasome A liposomes (LMHNLGKHLNSMERVEWLRKKLQDVHNF; Parathyroid hormone Novasome A liposome formulation; UniProt P01270 38-65, looked up, fragment)
- BRDU staining of the hair follicles [2]: increase in BRDU staining of the hair follicle
- effect on proliferation and differentiation of mammalian cells [4]: enhance the proliferation of mammalian cells
- enhancement in DNA synthesis (proliferation) compared to the control group ([6]; 10 μg topically daily for 60 days in Novasome, 3H-thymidine in the epidermis): more than two fold enhancement
- hair growth progression (progression of hair follicles into anagen), macroscopic evaluation [7]: increase in the progression of the hair follicles into their proliferative anagen state
- increase in the anagen area ([7]; 10 μg topically daily for seven days, formulated in Novasome A): 155%
